Assay results: patent US20030225125A1, “IL-8 receptor antagonists” (SmithKline Beecham Corporation, priority 1999, published 2003)

Molecular target: T1, recombinant human IL-8 type β receptor (Type II, permissive receptor) (Homo sapiens, UniProt P25025)
T1 construct: expressed in transfected cells; host or cells: Chinese hamster ovary (CHO) cells; membrane preparation
T1 sequence (P25025 1-360): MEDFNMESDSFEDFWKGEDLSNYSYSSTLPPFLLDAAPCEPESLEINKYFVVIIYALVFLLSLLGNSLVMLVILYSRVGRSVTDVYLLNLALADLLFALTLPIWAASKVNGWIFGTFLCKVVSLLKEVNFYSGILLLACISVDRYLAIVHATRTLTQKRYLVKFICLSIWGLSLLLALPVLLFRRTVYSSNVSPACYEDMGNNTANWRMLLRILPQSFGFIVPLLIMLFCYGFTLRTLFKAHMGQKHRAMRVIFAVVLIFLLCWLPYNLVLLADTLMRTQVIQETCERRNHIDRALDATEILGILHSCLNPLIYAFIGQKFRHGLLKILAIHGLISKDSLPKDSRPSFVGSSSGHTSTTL
Experiment: IL-8 receptor binding assay, permissive model (125I IL-8 / 125I Gro-α, CHO membranes)
Details: recombinant receptor expressed in Chinese hamster ovary cell membranes, compound 0.01 nM to 100 uM
Procedure: The IL-8, and GRO-α chemokine inhibitory effects of compounds of the present invention were determined by the following in vitro assay:
[^125I] IL-8 (human recombinant) was obtained from Amersham Corp., Arlington Heights, Ill., with specific activity 2000 Ci/mmol. GRO-α was obtained from NEN-New England Nuclear. All other chemicals were of analytical grade. High levels of recombinant human IL-8 type α and β receptors were individually expressed in Chinese hamster ovary cells as described previously (Holmes, et al., Science, 1991, 253, 1278). The Chinese hamster ovary membranes were homogenized according to a previously described protocol (Haour, et al., J Biol Chem., 249 pp 2195-2205 (1974)). Except that the homogenization buffer was changed to 10 mM Tris-HCL, 1 mM MgS04, 0.5 mM EDTA (ethylene-diaminetetra-acetic acid), 1 mMPMSF (α-toluenesulphonyl fluoride), 0.5 mg/L Leupeptin, pH 7.5. Membrane protein concentration was determined using Pierce Co. micro-assay kit using bovine serum albumin as a standard. All assays were performed in a 96-well micro plate format. […] The filter was then dried and counted on the Betaplate liquid scintillation counter. […]

inhibition in the permissive models for IL-8 receptor inhibition: inactive
Substance: N-(2,4-Dichloro-3-carboxy)-N′-(2,3-dichlorophenyl)urea
